Results reported in patent US20230021483A1, “[…] […] METHOD AND CLASSIFICATION OF PHARMACEUTICAL COMPONENTS BY USING TRANSCRIPTOMES” (National Institutes of Biomedical Innovation, Health and …, priority 2016, published 2023).

Tested on: adjuvant-associated biological themes in LV, SP, LN
Settings: LV, ID
Excerpt: A defined sets of genes were selected according to specified criteria (e.g., FC, PA-call, threshold values). Their functional enrichment values were then obtained from TargetMine (Chen, Y. A., Tripathi, L. P. & Mizuguchi, K. PloS one 6, e17844 (2011)) (http://targetmine.mizuguchilab.org/) using the API interface. The following resources were used throughout the analysis via TargetMine Interface (GO, GOSlim, Integrated Pathway, KEGG, Reactome, and the NCI pathway). The Holm-Bonferroni method was used for multiple testing corrections.
Whole organ transcriptome data for each organ from each mouse were analyzed as follows to obtain biological themes for individual samples from each adjuvant-administered group of three mice. […] A set of Pj genes was first defined, where eij/ei(c)>2.0. Biological themes enriched within Pj were then identified using TargetMine (Chen, Y. A. et al., PloS one 6, e17844 (2011)) (http://targetmine.mizuguchilab.org/). Tj denote the resulting list of biological themes, with associated p-values from Fischer's exact test.
Next, the biological themes called by all the individual samples in the group were scored as follows. Having obtained three lists (T1, T2 and T3) for a given experimental condition, a consensus list T of themes was created as T={(t1, p1), (t2, p2), . . . }, where ti is a biological theme that appears in all of T1, T2 and T3, and pi is the smallest of the associated p-values. Only the themes with the p-value of <0.05 were included in T.
To summarize the biological themes in T further, a list of terms considered to be associated with adjuvant activity in general was separately prepared. AT={at1, at2, . . . }, where ati is a pre-selected adjuvant-associated term (e.g., “stress” or “cytokine”). Finally, an enrichment score S for an adjuvant-associated term ati was defined as: S(ati)=Σ−log(pj), where the name of tj in T includes a term ati as a substring and pj is the associated p-value.
This scoring scheme summarizes the relative enrichment of pre-selected adjuvant-associated terms in genes responding to each adjuvant in each organ.

## Nc1nc2c(ncn2[C@@H]2O[C@@H]3COP(=O)(O)O[C@H]4[C@@H](O)[C@H](n5cnc6c(N)ncnc65)O[C@@H]4COP(=O)(O)O[C@@H]2[C@@H]3O)c(=O)[nH]1 [cGAMP, Cyclic [G(2′,5′)pA(3′,5′)p]]
  GO annotation: Cytokine-cytokine receptor interaction (Term: cytokine): 5.57
  GO annotation: Cytokine-cytokine receptor interaction|Endocytosis (Term: cytokine): 24.6
  GO annotation: NF-kappa B signaling pathway (Term: NF-kappa B signaling pathway): 4.86
  GO annotation: TNF signaling pathway (Term: TNF signaling pathway): 27.6
  GO annotation: activation of immune response (Term: immune response): 12.6
  GO annotation: activation of innate immune response (Term: innate immune response): 16.9
  GO annotation: acute inflammatory response (Term: inflammatory response): 0
  GO annotation: adaptive immune response (Term: adaptive immune response): 0
  GO annotation: adaptive immune response based on somatic recombination of immune receptors built from immunoglobulin superfamily domains (Term: adaptive immune response): 3.78
  GO annotation: apoptotic process (Term: apoptosis): 4.46
  GO annotation: apoptotic signaling pathway (Term: apoptosis): 0
  GO annotation: cell chemotaxis (Term: chemotaxis): 4.4
  GO annotation: cell death (Term: cell death): 10.2
  GO annotation: cell migration (Term: migration): 0
  GO annotation: cellular response to cytokine stimulus (Term: cytokine): 32.9
  GO annotation: cellular response to interferon-alpha (Term: IFN alpha): 6.72
  GO annotation: cellular response to stress (Term: stress): 0
  GO annotation: chemokine production (Term: chemokine): 0
  GO annotation: chemokine-mediated signaling pathway (Term: chemokine): 0
  GO annotation: chemotaxis (Term: chemotaxis): 0
  GO annotation: cytokine biosynthetic process (Term: cytokine): 6.84
  GO annotation: cytokine metabolic process (Term: cytokine): 8.21
  GO annotation: cytokine production (Term: cytokine): 17.4
  GO annotation: cytokine secretion (Term: cytokine): 0
  GO annotation: cytokine-mediated signaling pathway (Term: cytokine): 16.4
  GO annotation: death (Term: cell death): 4.77
  GO annotation: defense response (Term: defense response): 62.7
  GO annotation: defense response to Gram-positive bacterium (Term: defense response): 0
  GO annotation: defense response to bacterium (Term: defense response): 8.38
  GO annotation: defense response to other organism (Term: defense response): 37
  GO annotation: defense response to protozoan (Term: defense response): 4.37
  GO annotation: defense response to virus (Term: defense response): 19.8
  GO annotation: granulocyte chemotaxis (Term: chemotaxis): 0
  GO annotation: granulocyte migration (Term: migration): 0
  GO annotation: immune response (Term: immune response): 42.2
  GO annotation: immune response-activating signal transduction (Term: immune response): 14.1
  GO annotation: immune response-regulating signaling pathway (Term: immune response): 17.6
  GO annotation: inflammatory response (Term: inflammatory response): 11.5
  GO annotation: innate immune response (Term: innate immune response): 31.4
  GO annotation: innate immune response-activating signal transduction (Term: innate immune response): 16.2
  GO annotation: interferon-alpha production (Term: IFN alpha): 3.79
  GO annotation: intrinsic apoptotic signaling pathway (Term: apoptosis): 0
  GO annotation: leukocyte chemotaxis (Term: chemotaxis): 0
  GO annotation: leukocyte migration (Term: migration): 0
  GO annotation: leukocyte migration involved in inflammatory response (Term: inflammatory response): 0
  GO annotation: lymphocyte chemotaxis (Term: chemotaxis): 0
  GO annotation: lymphocyte migration (Term: migration): 0
  GO annotation: myeloid leukocyte migration (Term: migration): 0
  GO annotation: negative regulation of apoptotic process (Term: apoptosis): 0
  GO annotation: negative regulation of cell death (Term: cell death): 0
  GO annotation: negative regulation of cytokine production (Term: cytokine): 3.21
  GO annotation: negative regulation of defense response (Term: defense response): 0
  GO annotation: negative regulation of immune response (Term: immune response): 0
  GO annotation: negative regulation of innate immune response (Term: innate immune response): 0
  GO annotation: negative regulation of programmed cell death (Term: cell death): 0
  GO annotation: neutrophil chemotaxis (Term: chemotaxis): 0
  GO annotation: neutrophil migration (Term: migration): 0
  GO annotation: positive regulation of adaptive immune response (Term: adaptive immune response): 0
  GO annotation: positive regulation of apoptotic process (Term: apoptosis): 0
  GO annotation: positive regulation of cell death (Term: cell death): 0
  GO annotation: positive regulation of cell migration (Term: migration): 0
  GO annotation: positive regulation of chemokine production (Term: chemokine): 0
  GO annotation: positive regulation of chemotaxis (Term: chemotaxis): 0
  GO annotation: positive regulation of cytokine biosynthetic process (Term: cytokine): 0
  GO annotation: positive regulation of cytokine production (Term: cytokine): 11.1
  GO annotation: positive regulation of defense response (Term: defense response): 24.7
  GO annotation: positive regulation of immune response (Term: immune response): 15.7
  GO annotation: positive regulation of inflammatory response (Term: inflammatory response): 0
  GO annotation: positive regulation of innate immune response (Term: innate immune response): 17.2
  GO annotation: positive regulation of interferon-alpha production (Term: IFN alpha): 4.81
  GO annotation: positive regulation of leukocyte chemotaxis (Term: chemotaxis): 0
  GO annotation: positive regulation of leukocyte migration (Term: migration): 0
  GO annotation: positive regulation of programmed cell death (Term: cell death): 0
  GO annotation: positive regulation of response to wounding (Term: wounding): 0
  GO annotation: positive regulation of tumor necrosis factor superfamily cytokine (Term: cytokine): 0
  GO annotation: production of molecular mediator of immune response (Term: immune response): 0
  GO annotation: programmed cell death (Term: cell death): 6.49
  GO annotation: regulation of adaptive immune response (Term: adaptive immune response): 0
  GO annotation: regulation of adaptive immune response based on somatic recombination of immune receptors built from immunoglobulin superfamily domains (Term: adaptive immune response): 0
  GO annotation: regulation of apoptotic process (Term: apoptosis): 4.63
  GO annotation: regulation of apoptotic signaling pathway (Term: apoptosis): 0
  GO annotation: regulation of cell death (Term: cell death): 3.82
  GO annotation: regulation of cell migration (Term: migration): 0
  GO annotation: regulation of chemokine production (Term: chemokine): 0
  GO annotation: regulation of chemotaxis (Term: chemotaxis): 0
  GO annotation: regulation of cytokine biosynthetic process (Term: cytokine): 0
  GO annotation: regulation of cytokine production (Term: cytokine): 19.1
  GO annotation: regulation of defense response (Term: defense response): 37.5
  GO annotation: regulation of defense response to virus (Term: defense response): 0
  GO annotation: regulation of defense response to virus by host (Term: defense response): 0
  GO annotation: regulation of immune response (Term: immune response): 20.7
  GO annotation: regulation of inflammatory response (Term: inflammatory response): 0
  GO annotation: regulation of innate immune response (Term: innate immune response): 24.8
  GO annotation: regulation of interferon-alpha production (Term: IFN alpha): 4.28
  GO annotation: regulation of intrinsic apoptotic signaling pathway (Term: apoptosis): 0
  GO annotation: regulation of leukocyte chemotaxis (Term: chemotaxis): 0
  GO annotation: regulation of leukocyte migration (Term: migration): 0
  GO annotation: regulation of programmed cell death (Term: cell death): 4.93
  GO annotation: regulation of response to stress (Term: stress): 25.3
  GO annotation: regulation of response to wounding (Term: wounding): 3.31
  GO annotation: regulation of tumor necrosis factor superfamily cytokine production (Term: cytokine): 0
  GO annotation: response to cytokine (Term: cytokine): 45.9
  GO annotation: response to interferon-alpha (Term: IFN alpha): 14.8
  GO annotation: response to stress (Term: stress): 44.6
  GO annotation: response to wounding (Term: wounding): 0
  GO annotation: taxis (Term: chemotaxis): 0
  GO annotation: tumor necrosis factor superfamily cytokine production (Term: cytokine): 0
  IFN beta: cellular response to interferon-beta: 17.6
  IFN beta: interferon-beta production: 5.22
  IFN beta: positive regulation of interferon-beta production: 9.2
  IFN beta: regulation of interferon-beta production: 5.76
  IFN beta: response to interferon-beta: 23.5
  IFN gamma: cellular response to interferon-gamma: 7.44
  IFN gamma: interferon-gamma production: 0
  IFN gamma: regulation of interferon-gamma production: 0
  IFN gamma: response to interferon-gamma: 10
  interleukin-6: interleukin-6 production: 0
  interleukin-6: positive regulation of interleukin-6 production: 0
  interleukin-6: regulation of interleukin-6 production: 0
  interleukin-12: interleukin-12 production: 0
  interleukin-12: positive regulation of interleukin-12 production: 0
  interleukin-12: regulation of interleukin-12 production: 0
